According to ChEMBL document CHEMBL6109180, “De Novo-Designed APC/C Inhibitors Provide a Rationale for Targeting RING-Type E3 Ubiquitin Ligases” (J Med Chem, 2025):
Active and inactive are the calls of the source. The calls are words filed in the database; no cut-off is given here. Bridge positions count the residues as written; N and C are the ends. Square brackets hold non-standard residues; d marks the D form. Peptide text beside a SMILES is read from it. R8 = C=CCCCCCC[C@@](C)(N)C(=O)O; S5 = C=CCCC[C@](C)(N)C(=O)O; AEA = NCCOCC(=O)O

Experiments:
MDA-MB-231 = assay: Effect on time length of mitosis in human MDA-MB-231 cells at 50 uM incubated for 10 to 24 hrs by live cell microscopy; type: functional, cell-based; conditions: time 10-24 hrs
A549 = assay: Induction of mitotic arrest in human A549 cells assessed as cells in prolongation at 50 uM measured up to 213 mins by time-lapse imaging analysis relative to control; type: functional; conditions: 3.55 h
RKO = assay: Induction of mitotic arrest in human RKO cells assessed as cells in prolongation at 50 uM measured up to 213 mins by time-lapse imaging analysis relative to control; type: functional; conditions: 3.55 h
HeLa [1] = assay: Induction of mitotic arrest in human HeLa cells assessed as prolongation in metaphase at 50 uM measured up to 213 mins by time-lapse imaging analysis; type: functional, cell-based
SW480 = assay: Effect on time length of mitosis in human SW480 cells at 50 uM incubated for 10 to 24 hrs by live cell microscopy; type: functional, cell-based; conditions: time 10-24 hrs
HT-1080 = assay: Induction of mitotic arrest in human HT-1080 cells assessed as cells in prolongation at 50 uM measured up to 213 mins by time-lapse imaging analysis relative to control; type: functional; conditions: 3.55 h
HeLa [2] = assay: Induction of mitotic arrest in human HeLa cells assessed as time length at 50 uM measured up to 213 mins by time-lapse imaging analysis; type: functional; conditions: 3.55 h
HeLa [3] = assay: Induction of mitotic arrest in human HeLa cells assessed as cells in prolongation at 50 uM measured up to 213 mins by time-lapse imaging analysis relative to control; type: functional; conditions: 3.55 h

Question: Which results are given for CC[C@H](C)[C@@H]1NC(=O)[C@H](CCC(=O)O)NC(=O)[C@H](CCCCN)NC(=O)[C@H]([C@@H](C)CC)NC(=O)[C@](C)(NC(=O)[C@H](Cc2c[nH]c3ccccc23)NC(=O)[C@H](Cc2c[nH]c3ccccc23)NC(=O)[C@H](CCC(=O)O)NC(=O)COCCNC(=O)CNC(=O)[C@H](Cc2ccccc2)NC(=O)[C@H](Cc2c[nH]c3ccccc23)NC(=O)[C@H](Cc2ccccc2)NC(=O)CNC(C)=O)CCCCCC/C=C\CCC[C@@](C)(C(=O)N[C@@H](CCCNC(=N)N)C(=O)N[C@@H](CCCNC(=N)N)C(=O)N[C@@H](C)C(N)=O)NC(=O)[C@H](CCCNC(=N)N)NC(=O)[C@H](CCC(N)=O)NC1=O (Ac-GFWFG[AEA]EWW[R8]IKEIQR[S5]RRA-NH2; staple (Z) 10-17)?
Answer: Activity (MDA-MB-231): No effect; Activity (A549): 75%; Activity (RKO): 75%; Activity (HeLa [1]): Active; Activity (SW480): No effect; Activity (HT-1080): 75%; Time (HeLa [2]): <=2 hr; Activity (HeLa [3]): 75%
